Measured values reported in US10968236B2, “TYK2 inhibitors and uses thereof” (Nimbus Lakshmi, Inc., priority 2015, dated 2021).
Where a name gives a salt, the structure may show the parent alone.

Assays:
[1] = target: TYK2 (Homo sapiens (Human), UniProt P29597); assay: Tyk2 activity inhibition assay (radioactive kinase / Caliper assay); assay type: biochemical
Procedure: (§1) Peptide substrate, [KKSRGDYMTMQIG], (20 μM) is prepared in reaction buffer (20 mM Hepes pH 7.5, 10 mM MgCl2, 1 mM EGTA, 0.02% Brij35, 0.02 mg/mL BSA, 0.1 mM […], 2 mM DTT, 1% DMSO. TYK2 (Invitrogen) kinase is added, followed by compounds in DMSO. 33PATP is added to initiate the reaction in ATP at 10 μM. Kinase reaction is incubated for 120 min at room temp and reactions are spotted onto P81 ion exchange paper (Whatman #3698-915), and then washed extensively in 0.75% phosphoric acid, prior to reading the radioactivity counts. For JAK2 (Invitrogen) kinase assay the peptide substrate poly[Glu:Tyr] (4:1), 0.2 mg/ml is used, in the reaction carried out the same as for TYK2.
(§2) The caliper machine employs an off chip mobility shift assay to detect phosphorylated peptide substrates from kinase assays, using microfluidics technology. The assays are carried out at ATP concentration equivalent to the ATP Km, and at 1 mM ATP. Compounds are serially diluted in DMSO then further diluted in assay buffer (25 mM HEPES, pH 7.5, 0.01% Brij-35, 0.01% Triton, 0.5 mM EGTA). 5 ul of diluted compound was added into wells first, then 10 ul of enzyme mix was added into wells, followed by 10 uL of substrate mix (peptide and ATP in 10 mM MgCl2) to start reaction. Reaction was incubated at 28° C. for 25 min and then added 25 ul stop buffer (100 mM HEPES, 0.015% Brij-35, 50 mM EDTA), followed by reading with Caliper. JAK2 at 1 nM final concentration and TYK2 at 9.75 nM are from Carna, and substrates used are ATP at 20 and 16 uM, respectively. JAK2 assay uses peptide 22 and TYK2 uses peptide 30 (Caliper), each at 3 uM.
(§3) The compound numbers correspond to the compound numbers in Table 1. Compounds having an activity designated as “A” provided an Ki≤0.01 μM; compounds having an activity designated as “B” provided an Ki of 0.01-0.1 μM; compounds having an activity designated as “C” provided an Ki of 0.1-1.0 μM; and compounds having an activity designated as “D” provided an Ki≥1.0 μM.

[2] = target: JAK2 (Homo sapiens (Human), UniProt O60674); assay: JAK2 activity inhibition assay (radioactive kinase / Caliper assay); assay type: biochemical
Chain of JAK2 (O60674 whole entry): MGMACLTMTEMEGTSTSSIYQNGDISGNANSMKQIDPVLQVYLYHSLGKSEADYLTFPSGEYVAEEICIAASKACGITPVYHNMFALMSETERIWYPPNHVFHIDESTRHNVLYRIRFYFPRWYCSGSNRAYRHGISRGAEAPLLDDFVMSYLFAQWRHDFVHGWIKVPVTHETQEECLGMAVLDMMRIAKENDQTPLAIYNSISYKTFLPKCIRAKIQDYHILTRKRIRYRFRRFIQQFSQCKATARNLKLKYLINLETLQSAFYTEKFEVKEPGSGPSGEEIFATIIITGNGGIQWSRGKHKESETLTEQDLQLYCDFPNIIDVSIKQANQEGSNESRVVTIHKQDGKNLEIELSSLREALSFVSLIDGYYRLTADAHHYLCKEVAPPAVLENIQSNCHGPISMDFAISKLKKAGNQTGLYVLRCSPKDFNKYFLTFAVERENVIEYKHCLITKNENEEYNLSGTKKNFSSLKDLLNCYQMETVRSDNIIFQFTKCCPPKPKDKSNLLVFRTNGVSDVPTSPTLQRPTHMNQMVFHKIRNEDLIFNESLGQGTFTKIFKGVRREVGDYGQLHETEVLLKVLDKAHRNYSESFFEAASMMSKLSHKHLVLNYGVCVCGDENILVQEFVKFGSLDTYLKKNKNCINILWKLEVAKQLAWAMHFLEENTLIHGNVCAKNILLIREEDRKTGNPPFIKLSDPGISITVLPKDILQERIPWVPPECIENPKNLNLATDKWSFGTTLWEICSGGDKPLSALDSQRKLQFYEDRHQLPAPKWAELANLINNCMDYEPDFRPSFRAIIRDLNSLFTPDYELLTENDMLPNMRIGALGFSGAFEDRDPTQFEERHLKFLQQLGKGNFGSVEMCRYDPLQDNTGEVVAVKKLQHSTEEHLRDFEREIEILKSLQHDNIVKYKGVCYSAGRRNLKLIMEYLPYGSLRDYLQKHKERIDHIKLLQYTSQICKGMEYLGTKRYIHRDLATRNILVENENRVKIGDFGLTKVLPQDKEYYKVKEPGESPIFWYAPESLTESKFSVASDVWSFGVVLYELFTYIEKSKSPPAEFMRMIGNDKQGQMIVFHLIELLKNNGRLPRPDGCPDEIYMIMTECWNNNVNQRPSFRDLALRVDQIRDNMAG
Procedure: as §1, §2, §3

Chain of TYK2 (P29597 whole entry): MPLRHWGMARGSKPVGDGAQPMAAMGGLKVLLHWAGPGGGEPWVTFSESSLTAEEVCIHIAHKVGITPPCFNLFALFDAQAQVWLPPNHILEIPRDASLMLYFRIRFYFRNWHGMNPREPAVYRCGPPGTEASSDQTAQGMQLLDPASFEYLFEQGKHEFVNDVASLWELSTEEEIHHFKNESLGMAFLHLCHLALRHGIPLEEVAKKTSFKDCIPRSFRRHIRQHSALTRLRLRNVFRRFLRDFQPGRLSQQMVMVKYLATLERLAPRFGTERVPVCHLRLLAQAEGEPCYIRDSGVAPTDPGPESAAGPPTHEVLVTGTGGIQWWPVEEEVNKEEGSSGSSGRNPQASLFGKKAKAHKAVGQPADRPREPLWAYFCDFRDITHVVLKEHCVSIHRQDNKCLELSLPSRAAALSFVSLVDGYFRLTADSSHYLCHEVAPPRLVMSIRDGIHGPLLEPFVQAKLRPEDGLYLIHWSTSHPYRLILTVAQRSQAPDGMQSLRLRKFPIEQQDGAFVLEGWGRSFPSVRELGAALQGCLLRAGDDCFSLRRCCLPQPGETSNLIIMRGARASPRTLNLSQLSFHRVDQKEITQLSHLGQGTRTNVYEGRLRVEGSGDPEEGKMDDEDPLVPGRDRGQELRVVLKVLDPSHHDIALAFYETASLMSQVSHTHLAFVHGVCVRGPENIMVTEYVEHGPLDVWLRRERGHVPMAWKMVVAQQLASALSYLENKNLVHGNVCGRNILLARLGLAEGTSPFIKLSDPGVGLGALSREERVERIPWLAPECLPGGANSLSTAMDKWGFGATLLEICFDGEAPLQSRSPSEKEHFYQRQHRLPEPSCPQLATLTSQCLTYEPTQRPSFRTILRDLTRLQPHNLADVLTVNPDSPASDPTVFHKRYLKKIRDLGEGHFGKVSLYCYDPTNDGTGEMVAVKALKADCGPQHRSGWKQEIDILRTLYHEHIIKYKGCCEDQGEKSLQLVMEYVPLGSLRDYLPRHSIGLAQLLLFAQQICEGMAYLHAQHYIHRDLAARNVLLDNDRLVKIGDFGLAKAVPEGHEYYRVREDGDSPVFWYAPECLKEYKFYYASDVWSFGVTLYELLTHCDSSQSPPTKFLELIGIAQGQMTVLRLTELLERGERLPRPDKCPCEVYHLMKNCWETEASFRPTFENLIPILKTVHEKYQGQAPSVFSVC

| SMILES | Ki [1] | Ki [2] |
| --- | --- | --- |
| O=C1NCc2nc(-c3c(F)cccc3F)cc(Nc3ccc(N4CCC5(CC4)COC5)cn3)c21 [Compound I-24, 4-((5-(2-oxa-7-azaspiro[3.5]nonan-7-yl)pyridin-2-yl)amino)-2-(2,6-difluorophenyl)-6,7-dihydro-5H-pyrrolo[3,4-b]pyridin-5-one] | ≤ 10 nM | ≤ 10 nM |
| CCNC(=O)C(O)(CC(F)(F)F)c1ccc(Nc2nc(-c3c(F)cccc3F)nc3c2C(=O)NC3)cc1 (stereo not drawn) [Compound I-26, 2-(4-((2-(2,6-difluorophenyl)-5-oxo-6,7-dihydro-5H-pyrrolo[3,4-d]pyrimidin-4-yl)amino)phenyl)-N-ethyl-4,4,4-trifluoro-2-hydroxybutanamide] | ≤ 10 nM | 100 to 1000 nM |
| O=C1NCc2nc(-c3c(F)cccc3F)nc(Nc3ccc(C(O)C(F)(F)F)cc3)c21 (stereo not drawn) [Compound I-29, 2-(2,6-difluorophenyl)-4-((4-(2,2,2-trifluoro-1-hydroxy-ethyl)phenyl)amino)-6,7-dihydro-5H-pyrrolo[3,4-d]pyrimidin-5-one] | ≤ 10 nM | 100 to 1000 nM |
| CC(N)(C(=O)O)c1ccc(Nc2nc(-c3c(F)cccc3F)nc3c2C(=O)NC3)cc1 (stereo not drawn) [Compound I-32, 2-amino-2-(4-((2-(2,6-difluorophenyl)-5-oxo-6,7-dihydro-5H-pyrrolo[3,4-d]pyrimidin-4-yl)amino)phenyl)propanoic acid] | ≤ 10 nM | ≥ 1000 nM |
| CC(O)(c1ccc(Nc2nc(-c3c(F)cccc3F)nc3c2C(=O)NC3)cc1)C(F)(F)F (stereo not drawn) [Compound I-33, 2-(2,6-difluorophenyl)-4-((4-(1,1,1-trifluoro-2-hydroxy-propan-2-yl)phenyl)amino)-6,7-dihydro-5H-pyrrolo[3,4-d]pyrimidin-5-one] | ≤ 10 nM | 100 to 1000 nM |
| CN1C(=O)C(C)(c2ccc(Nc3nc(-c4c(F)cccc4F)nc4c3C(=O)NC4)cc2)Oc2ccccc21 (stereo not drawn) [Compound I-39, 2-(4-((2-(2,6-difluorophenyl)-5-oxo-6,7-dihydro-5H-pyrrolo[3,4-d]pyrimidin-4-yl)amino)phenyl)-2,4-dimethyl-2H-benzo[b][1,4]oxazin-3(4H)-one] | ≤ 10 nM | 100 to 1000 nM |
| CN1C(=O)[C@@](C)(c2ccc(Nc3nc(-c4c(F)cccc4F)nc4c3C(=O)NC4)cc2)Oc2ccccc21 [Compound I-41, (R)-2-(4-((2-(2,6-difluorophenyl)-5-oxo-6,7-dihydro-5H-pyrrolo[3,4-d]pyrimidin-4-yl)amino)phenyl)-2,4-dimethyl-2H-benzo[b][1,4]oxazin-3(4H)-one] | 100 to 1000 nM | 100 to 1000 nM |
| CC(O)(c1ccc(Nc2cc(-c3c(F)cccc3F)nc3c2C(=O)NC3)cc1)C(F)(F)F (stereo not drawn) [Compound I-42, 2-(2,6-difluorophenyl)-4-((4-(1,1,1-trifluoro-2-hydroxypropan-2-yl)phenyl)amino)-6,7-dihydro-5H-pyrrolo[3,4-b]pyridin-5-one] | ≤ 10 nM | 10 to 100 nM |
| C[C@@](N)(C(=O)O)c1ccc(Nc2nc(-c3c(F)cccc3F)nc3c2C(=O)NC3)cc1 [Compound I-45, (S)-2-amino-2-(4-((2-(2,6-difluorophenyl)-5-oxo-6,7-dihydro-5H-pyrrolo[3,4-d]pyrimidin-4-yl)amino)phenyl)propanoic acid hydrochloride] | ≤ 10 nM | 100 to 1000 nM |
| C[C@](N)(C(=O)O)c1ccc(Nc2nc(-c3c(F)cccc3F)nc3c2C(=O)NC3)cc1 [Compound I-46, (R)-2-amino-2-(4-((2-(2,6-difluorophenyl)-5-oxo-6,7-dihydro-5H-pyrrolo[3,4-d]pyrimidin-4-yl)amino)phenyl)propanoic acid hydro-chloride] | 10 to 100 nM | 100 to 1000 nM |
| O=C1NCc2nc(-c3c(F)cccc3F)cc(Nc3ccc(N4CCOCC45CC5)cn3)c21 [Compound I-47, 4-((5-(7-oxa-4-azaspiro[2.5]octan-4-yl)pyridin-2-yl)amino)-2-(2,6-difluorophenyl)-6,7-dihydro-5H-pyrrolo[3,4-b]pyridin-5-one] | ≤ 10 nM | ≤ 10 nM |
| CN1C(=O)C(C)(c2ccc(Nc3nc(-c4c(F)cccc4F)nc4c3C(=O)NC4)cc2)c2ccccc21 (stereo not drawn) [Compound I-48, 2-(2,6-difluorophenyl)-4-((4-(1,3-dimethyl-2-oxoindolin-3-yl)phenyl)amino)-6,7-dihydro-5H-pyrrolo[3,4-d]pyrimidin-5-one] | 10 to 100 nM | 100 to 1000 nM |
| O=C1NCc2nc(-c3c(F)cccc3F)cc(Nc3ccc(C(=O)N4CCOC5(CC5)C4)cc3)c21 [Compound I-50, 4-((4-(4-oxa-7-azaspiro[2.5]octane-7-carbonyl)phenyl)amino)-2-(2,6-difluorophenyl)-6,7-dihydro-5H-pyrrolo[3,4-b]pyridin-5-one] | ≤ 10 nM | 10 to 100 nM |
| O=C1NCc2nc(-c3c(F)cccc3F)cc(Nc3ccc(C(=O)N4CCOCC45CC5)cc3)c21 [Compound I-51, 4-((4-(7-oxa-4-azaspiro[2.5]octane-4-carbonyl)phenyl)amino)-2-(2,6-difluorophenyl)-6,7-dihydro-5H-pyrrolo[3,4-b]pyridin-5-one] | ≤ 10 nM | ≤ 10 nM |
| O=C1NCc2nc(-c3c(F)cccc3F)cc(Nc3ccc(N4CCC5(CCCCO5)CC4)cn3)c21 [Compound I-53, 4-((5-(1-oxa-9-azaspiro[5.5]undecan-9-yl)pyridin-2-yl)amino)-2-(2,6-difluorophenyl)-6,7-dihydro-5H-pyrrolo[3,4-b]pyridin-5-one] | ≤ 10 nM | 10 to 100 nM |
| O=C1NCc2nc(-c3c(F)cccc3F)cc(Nc3ccc(C(=O)N4CCC5(CCCCO5)CC4)cc3)c21 [Compound I-54, 4-((4-(1-oxa-9-azaspiro[5.5]undecane-9-carbonyl)phenyl)amino)-2-(2,6-difluorophenyl)-6,7-dihydro-5H-pyrrolo[3,4-b]pyridin-5-one] | ≤ 10 nM | 10 to 100 nM |
| CC1(c2ccc(Nc3cc(-c4c(F)cccc4F)nc4c3C(=O)NC4)nc2)CC(C)(C)N(C2=CCOCC2)C1=O (stereo not drawn) [Compound I-55, 2-(2,6-difluorophenyl)-4-((5-(1-(3,6-dihydro-2H-pyran-4-yl)-3,5,5-trimethyl-2-oxopyrrolidin-3-yl)pyridin-2-yl)amino)-6,7-dihydro-5H-pyrrolo[3,4-b]pyridin-5-one] | ≤ 10 nM | ≤ 10 nM |
| O=C1NCc2nc(-n3c(F)cccc3=O)cc(Nc3ccc(N4CCOCC4)cn3)c21 [Compound I-56, 2-(6-fluoro-2-oxopyridin-1(2H)-yl)-4-((5-morpholinopyridin-2-yl)amino)-6,7-dihydro-5H-pyrrolo[3,4-b]pyridin-5-one] | 10 to 100 nM | 100 to 1000 nM |
| O=C1NCc2nc(-c3c(F)cccc3F)cc(Nc3ccc(C(=O)N4CCC5(CC4)CC5)cc3)c21 [Compound I-57, 4-((4-(6-azaspiro[2.5]octane-6-carbonyl)phenyl)amino)-2-(2,6-difluorophenyl)-6,7-dihydro-5H-pyrrolo[3,4-b]pyridin-5-one] | ≤ 10 nM | 10 to 100 nM |
| O=C1NCc2nc(-c3c(F)cccc3F)cc(Nc3ccc4c(c3)COB4O)c21 [Compound I-61, 2-(2,6-difluorophenyl)-4-((1-hydroxy-1,3-dihydro-benzo-[c][1,2]oxaborol-5-yl)amino)-6,7-dihydro-5H-pyrrolo[3,4-b]pyridin-5-one] | 10 to 100 nM | ≥ 1000 nM |
| O=C1NCc2nc(-c3c(F)cccc3F)cc(Nc3ccc(C(=O)N4C[C@H]5COC[C@H]5C4)cc3)c21 [Compound I-63, 2-(2,6-difluorophenyl)-4-((4-((3aR,6aS)-hexahydro-1H-furo[3,4-c]pyrrole-5-carbonyl)phenyl)amino)-6,7-dihydro-5H-pyrrolo[3,4-b]pyridin-5-one] | ≤ 10 nM | 10 to 100 nM |
| CN1CCc2cc(Nc3cc(-c4c(F)cccc4F)nc4c3C(=O)NC4)ccc2C1=O [Compound I-64, 6-((2-(2,6-difluorophenyl)-5-oxo-6,7-dihydro-5H-pyrrolo[3,4-b]pyridin-4-yl)amino)-2-methyl-3,4-dihydroisoquinolin-1 (2H)-one] | ≤ 10 nM | 10 to 100 nM |
| O=C1NCc2nc(-c3c(F)cccc3F)cc(Nc3ccc(C(O)(C(F)(F)F)C(F)(F)F)cc3)c21 [Compound I-66, 2-(2,6-difluorophenyl)-4-((4-(1,1,1,3,3,3-hexafluoro-2-hydroxy-propan-2-yl)phenyl)amino)-6,7-dihydro-5H-pyrrolo[3,4-b]pyridin-5-one] | ≤ 10 nM | 10 to 100 nM |
| O=C1NCc2nc(-c3c(F)cccc3F)cc(Nc3ccc4c(c3)OCO4)c21 [Compound I-68, 4-(benzo[d][1,3]dioxol-5-ylamino)-2-(2,6-difluorophenyl)-6,7-dihydro-5H-pyrrolo[3,4-b]pyridin-5-one] | 10 to 100 nM | 100 to 1000 nM |
